Consider 22 compounds from US20260137703A1, “2-AMINO-PYRIDO[2,3-D]PYRIMIDIN-7(8H)-ONE AND 7-AMINO-1-PYRIMIDO[4,5-D]PYRIMIDIN-2(1 H)-ONE DERIVATIVES AS EGFR INHIBITORS FOR THE TREATMENT OF CANCER” (Cancer Research Technology Limited, priority 2022, published 2026).

Where two headings read alike, the source gives them in different places.

For series [1] the following is noted: THF.
The target in series [2] is T1, Phospho-EGFR (Tyr1068) in H1975 C797S cells (CRISPR-edited EGFR C797S) (Homo sapiens, UniProt P00533, C797S/L858R/T790M).
T1 construct: host or cells: H1975 C797S (CRISPR-edited)
T1 sequence (P00533 25-1210 T790M/C797S/L858R): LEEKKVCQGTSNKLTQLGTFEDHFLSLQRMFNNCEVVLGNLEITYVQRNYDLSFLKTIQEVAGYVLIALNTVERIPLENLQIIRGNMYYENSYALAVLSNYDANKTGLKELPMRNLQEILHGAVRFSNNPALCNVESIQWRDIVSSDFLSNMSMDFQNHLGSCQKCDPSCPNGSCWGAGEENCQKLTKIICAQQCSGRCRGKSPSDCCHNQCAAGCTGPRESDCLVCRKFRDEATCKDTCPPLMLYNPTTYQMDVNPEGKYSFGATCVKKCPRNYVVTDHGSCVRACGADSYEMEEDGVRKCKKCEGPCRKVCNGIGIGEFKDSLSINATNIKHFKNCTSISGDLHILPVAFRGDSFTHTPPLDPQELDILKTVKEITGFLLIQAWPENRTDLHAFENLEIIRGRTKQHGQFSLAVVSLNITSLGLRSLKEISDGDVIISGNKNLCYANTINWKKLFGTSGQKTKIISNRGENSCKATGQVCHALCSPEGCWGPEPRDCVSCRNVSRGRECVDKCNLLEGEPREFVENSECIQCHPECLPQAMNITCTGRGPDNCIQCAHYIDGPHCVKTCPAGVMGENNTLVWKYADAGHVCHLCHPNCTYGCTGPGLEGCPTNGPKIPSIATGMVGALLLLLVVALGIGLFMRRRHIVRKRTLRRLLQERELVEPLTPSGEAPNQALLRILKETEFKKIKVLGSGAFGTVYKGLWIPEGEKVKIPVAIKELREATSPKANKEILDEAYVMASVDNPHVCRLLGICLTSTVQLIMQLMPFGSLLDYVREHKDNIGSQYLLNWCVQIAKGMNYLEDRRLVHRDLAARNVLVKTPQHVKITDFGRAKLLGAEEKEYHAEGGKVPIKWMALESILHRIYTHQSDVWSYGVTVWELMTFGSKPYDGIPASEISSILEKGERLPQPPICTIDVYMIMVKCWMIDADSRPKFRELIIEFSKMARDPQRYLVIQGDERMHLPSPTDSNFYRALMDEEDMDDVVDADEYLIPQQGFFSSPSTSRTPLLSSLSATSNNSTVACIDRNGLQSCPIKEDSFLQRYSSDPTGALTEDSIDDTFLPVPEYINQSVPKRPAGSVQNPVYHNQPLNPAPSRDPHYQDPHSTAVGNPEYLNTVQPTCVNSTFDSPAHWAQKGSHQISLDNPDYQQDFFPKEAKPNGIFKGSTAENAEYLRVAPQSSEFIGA
The series can be described thus: HTRF pEGFR/total EGFR in H1975 C797S cells. It counts as cell-based. The conditions noted are these: ratio pEGFR/total EGFR, compound 3 hours. The method, boiled down: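 Readout is the HTRF-measured Tyr1068 phospho-EGFR to total EGFR ratio, normalised to the 0 μM control as percent. Preceding this, CRISPR-edited H1975 C797S cells, plated 24 h earlier, were exposed 3 h to duplicate compound doses in medium with 0.1% DMSO, then lysed on a shaker.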

Series [3] has as its target T2, Phospho-EGFR (Tyr1068) in A431 cells (Homo sapiens, UniProt P00533).
T2 construct: endogenous in cells; host or cells: A431
As to the kind of experiment: HTRF pEGFR/total EGFR in A431 cells with EGF stimulation. The note with it: ratio pEGFR/total EGFR, compound 2.5 hours then 100 ng/ml EGF 30 mins. It counts as cell-based. The method, boiled down: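 Values are pEGFR(Tyr1068)/total EGFR HTRF ratios (665/620 nm) given as percent of the 0 μM control. Adhered A431 cells (20,000 per well, 24 h) had 2.5 h compound pretreatment in 0.1% DMSO, then 30 min of 100 ng/ml EGF before lysis.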

Series [4] deals with CtermHisTag-mEGFR Wild type (Homo sapiens, UniProt P00533). As to the kind of experiment: biochemical.
CtermHisTag-mEGFR Wild type, sequence (P00533 whole entry): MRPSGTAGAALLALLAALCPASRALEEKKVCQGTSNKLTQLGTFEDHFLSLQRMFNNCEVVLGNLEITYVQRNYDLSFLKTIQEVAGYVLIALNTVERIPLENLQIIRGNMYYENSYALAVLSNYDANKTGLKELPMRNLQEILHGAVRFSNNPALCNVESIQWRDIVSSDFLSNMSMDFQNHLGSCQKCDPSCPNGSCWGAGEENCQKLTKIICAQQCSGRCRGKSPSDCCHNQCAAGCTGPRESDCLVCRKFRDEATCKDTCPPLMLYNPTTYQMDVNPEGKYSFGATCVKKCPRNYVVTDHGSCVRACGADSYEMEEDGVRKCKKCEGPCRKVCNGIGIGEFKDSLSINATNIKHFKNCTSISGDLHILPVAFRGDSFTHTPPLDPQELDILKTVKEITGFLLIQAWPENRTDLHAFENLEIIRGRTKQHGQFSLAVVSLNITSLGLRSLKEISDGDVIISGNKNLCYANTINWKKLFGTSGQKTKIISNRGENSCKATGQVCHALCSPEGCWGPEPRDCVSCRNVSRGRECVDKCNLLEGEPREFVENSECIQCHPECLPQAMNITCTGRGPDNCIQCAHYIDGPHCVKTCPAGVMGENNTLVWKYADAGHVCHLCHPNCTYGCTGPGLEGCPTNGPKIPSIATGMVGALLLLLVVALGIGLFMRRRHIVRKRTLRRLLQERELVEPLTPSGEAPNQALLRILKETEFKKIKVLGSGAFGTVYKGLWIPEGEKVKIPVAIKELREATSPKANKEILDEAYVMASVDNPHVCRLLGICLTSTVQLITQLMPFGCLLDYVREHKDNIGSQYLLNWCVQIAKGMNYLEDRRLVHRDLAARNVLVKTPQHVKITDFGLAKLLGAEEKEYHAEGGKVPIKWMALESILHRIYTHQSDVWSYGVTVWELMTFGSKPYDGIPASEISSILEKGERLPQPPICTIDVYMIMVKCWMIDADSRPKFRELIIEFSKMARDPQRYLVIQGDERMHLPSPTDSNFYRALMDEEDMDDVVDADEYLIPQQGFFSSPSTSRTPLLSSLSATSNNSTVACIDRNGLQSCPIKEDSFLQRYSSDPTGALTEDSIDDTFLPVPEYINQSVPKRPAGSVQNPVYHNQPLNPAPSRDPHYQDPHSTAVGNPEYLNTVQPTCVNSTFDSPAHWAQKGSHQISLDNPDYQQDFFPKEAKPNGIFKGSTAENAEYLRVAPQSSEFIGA
Series [5] deals with T3, Phospho-EGFR (Tyr1068) in H1975 cells (Homo sapiens, UniProt P00533, L858R/T790M).
T3 construct: host or cells: H1975
T3 sequence (P00533 25-1210 T790M/L858R): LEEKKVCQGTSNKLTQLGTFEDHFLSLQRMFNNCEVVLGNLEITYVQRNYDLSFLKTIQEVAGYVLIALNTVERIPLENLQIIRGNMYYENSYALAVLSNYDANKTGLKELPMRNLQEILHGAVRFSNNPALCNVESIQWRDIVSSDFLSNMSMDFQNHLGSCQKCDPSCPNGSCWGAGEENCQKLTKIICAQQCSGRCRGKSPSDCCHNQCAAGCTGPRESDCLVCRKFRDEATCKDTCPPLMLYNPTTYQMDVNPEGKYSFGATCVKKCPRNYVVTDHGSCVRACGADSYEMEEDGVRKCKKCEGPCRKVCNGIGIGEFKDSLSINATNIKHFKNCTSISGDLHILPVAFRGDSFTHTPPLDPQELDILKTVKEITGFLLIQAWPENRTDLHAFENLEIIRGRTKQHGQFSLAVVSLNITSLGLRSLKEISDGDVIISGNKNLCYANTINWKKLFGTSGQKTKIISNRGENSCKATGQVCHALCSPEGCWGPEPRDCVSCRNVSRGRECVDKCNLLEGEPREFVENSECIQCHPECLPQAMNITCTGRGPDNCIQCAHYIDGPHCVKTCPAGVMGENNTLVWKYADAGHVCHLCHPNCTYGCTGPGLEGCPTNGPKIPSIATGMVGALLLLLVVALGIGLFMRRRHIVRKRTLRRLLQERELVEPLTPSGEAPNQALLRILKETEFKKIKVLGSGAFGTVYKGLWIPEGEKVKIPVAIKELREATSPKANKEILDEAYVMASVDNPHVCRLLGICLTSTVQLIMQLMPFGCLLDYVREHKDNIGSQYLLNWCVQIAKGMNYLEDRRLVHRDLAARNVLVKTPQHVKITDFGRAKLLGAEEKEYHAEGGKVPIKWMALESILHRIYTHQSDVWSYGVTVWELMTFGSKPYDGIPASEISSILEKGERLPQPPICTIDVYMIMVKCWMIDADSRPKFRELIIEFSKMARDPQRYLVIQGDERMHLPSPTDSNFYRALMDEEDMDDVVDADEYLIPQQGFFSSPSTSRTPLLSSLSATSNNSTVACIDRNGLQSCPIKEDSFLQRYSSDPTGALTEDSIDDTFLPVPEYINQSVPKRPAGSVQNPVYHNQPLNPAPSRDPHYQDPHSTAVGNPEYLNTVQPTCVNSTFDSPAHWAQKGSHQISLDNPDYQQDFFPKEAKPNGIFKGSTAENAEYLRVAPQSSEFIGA
As to the kind of experiment: HTRF pEGFR/total EGFR in H1975 cells. It counts as cell-based. The note with it: ratio pEGFR/total EGFR, compound 3 hours. The gist of the method: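 Readout is the phospho-EGFR (Tyr1068) to total EGFR HTRF ratio, expressed relative to 0 μM control. Adhered H1975 cells were exposed to compound for 3 hours at 0.1% DMSO, duplicate wells, then lysed for 30 min at room temperature before two-wavelength fluorescence reading.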

T2 sequence (P00533 25-1210): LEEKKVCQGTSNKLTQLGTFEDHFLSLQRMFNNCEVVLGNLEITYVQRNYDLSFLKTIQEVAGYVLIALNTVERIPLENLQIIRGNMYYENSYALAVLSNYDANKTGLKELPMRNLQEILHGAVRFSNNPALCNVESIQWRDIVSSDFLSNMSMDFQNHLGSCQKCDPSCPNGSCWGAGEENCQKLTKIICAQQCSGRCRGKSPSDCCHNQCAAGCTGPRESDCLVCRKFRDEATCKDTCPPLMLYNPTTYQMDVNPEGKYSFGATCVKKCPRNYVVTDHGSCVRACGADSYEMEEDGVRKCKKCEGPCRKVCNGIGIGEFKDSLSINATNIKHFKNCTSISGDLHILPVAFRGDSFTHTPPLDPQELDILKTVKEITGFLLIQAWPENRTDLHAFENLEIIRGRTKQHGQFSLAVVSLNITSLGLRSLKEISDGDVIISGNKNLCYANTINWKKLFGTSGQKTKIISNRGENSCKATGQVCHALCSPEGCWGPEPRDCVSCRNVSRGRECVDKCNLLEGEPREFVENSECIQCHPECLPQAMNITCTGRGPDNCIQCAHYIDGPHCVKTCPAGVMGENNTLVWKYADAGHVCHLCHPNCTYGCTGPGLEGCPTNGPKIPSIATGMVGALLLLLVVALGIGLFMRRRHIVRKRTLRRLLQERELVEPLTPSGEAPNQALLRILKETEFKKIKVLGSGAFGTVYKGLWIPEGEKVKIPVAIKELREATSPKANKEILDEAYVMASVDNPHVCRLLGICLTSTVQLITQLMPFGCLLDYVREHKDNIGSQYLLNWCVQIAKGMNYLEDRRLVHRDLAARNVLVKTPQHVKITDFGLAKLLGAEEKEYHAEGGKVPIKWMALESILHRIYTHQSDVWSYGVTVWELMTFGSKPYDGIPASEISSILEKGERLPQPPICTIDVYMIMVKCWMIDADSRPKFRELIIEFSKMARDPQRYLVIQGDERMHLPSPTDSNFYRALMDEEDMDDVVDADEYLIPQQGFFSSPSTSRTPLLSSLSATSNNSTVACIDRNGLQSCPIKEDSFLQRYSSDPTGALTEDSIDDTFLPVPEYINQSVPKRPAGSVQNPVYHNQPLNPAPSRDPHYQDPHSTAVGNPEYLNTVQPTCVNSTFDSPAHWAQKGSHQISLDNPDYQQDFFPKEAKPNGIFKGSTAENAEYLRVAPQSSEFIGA

Regarding “4-Methyl-3^4-(4-methylpiperazin-1-yl)-1^5-((triisopropylsilyl)ethynyl)-1^7,1^8-dihydro-2,4-diaza-1(2,8)-pyrido[2,3-d]pyrimidina-3(1,3)-benzenacyclooctaphane-1^7,5-dione”, the ring closure, isolated yield in series [1] (other bond, 13-membered ring, PPh3/DIAD, 158.0 mM) turned out to be 38%.

In series [1] (from CC(C)[Si](C#Cc1cc(=O)[nH]c2nc(Nc3ccc(N4CCN(C)CC4)c(OCCCCCO)c3)ncc12)(C(C)C)C(C)C, other bond, 14-membered ring, PPh3/DIAD, 24.3 mM), `CC(C)[Si](C#Cc1cc(=O)n2c3nc(ncc13)Nc1ccc(N3CCN(C)CC3)c(c1)OCCCCC2)(C(C)C)C(C)C` displayed a ring closure, isolated yield of 22%.

Take `CC(C)N1CCN(c2ccc3cc2NC(=O)CCCn2c(=O)cc(C#C[Si](C(C)C)(C(C)C)C(C)C)c4cnc(nc42)N3)CC1`: the ring closure, isolated yield in series [1] (from CC(C)N1CCN(c2ccc(Nc3ncc4c(C#C[Si](C(C)C)(C(C)C)C(C)C)cc(=O)[nH]c4n3)cc2NC(=O)CCCO)CC1, other bond, 13-membered ring, PPh3/DEAD, 72.2 mM) amounted to 44%.

For the compound `CC(C)[Si](C#Cc1cc(=O)n2c3nc(ncc13)Nc1ccc(N3CCCN(C)CC3)c(c1)NC(=O)CCC2)(C(C)C)C(C)C`, the ring closure, isolated yield in series [1] (from CC(C)[Si](C#Cc1cc(=O)[nH]c2nc(Nc3ccc(N4CCCN(C)CC4)c(NC(=O)CCCO)c3)ncc12)(C(C)C)C(C)C, other bond, 13-membered ring, PPh3/DEAD, 31.7 mM) came out at 41%.

Consider `Cc1c(C#C[Si](C(C)C)(C(C)C)C(C)C)c2cnc3nc2n(c1=O)CC=CCOc1cccc(c1)N3`, for which the ring closure, isolated yield in series [1] (from Cc1c(C#C[Si](C(C)C)(C(C)C)C(C)C)c2cnc(Nc3cccc(O)c3)nc2n(C/C=C\CO)c1=O, ether bond, 13-membered ring, PPh3/DIAD, 180.0 mM) turned out to be 52%.

Take `CC(C)[Si](C#Cc1cc(=O)n2c3nc(ncc13)Nc1cccc(c1)OCCC2)(C(C)C)C(C)C`: the ring closure, isolated yield in series [1] (from CC(C)[Si](C#Cc1cc(=O)n(CCCO)c2nc(Nc3cccc(O)c3)ncc12)(C(C)C)C(C)C, ether bond, 12-membered ring, PPh3/DIAD, 52.0 mM) came to 31%.

On to `CC(C)[Si](C#Cc1cc(=O)n2c3nc(ncc13)Nc1ccc(N3CCN(C)CC3)c(c1)CNCCC2)(C(C)C)C(C)C`, for which, in series [1] (from CC(C)[Si](C#Cc1cc(=O)[nH]c2nc(Nc3ccc(N4CCN(C)CC4)c(CNCCCO)c3)ncc12)(C(C)C)C(C)C, other bond, 13-membered ring, PPh3/DIAD, 20.5 mM), the ring closure, isolated yield came to 53%.

In turn, “3^4-(4-Methylpiperazin-1-yl)-1^5-((triisopropylsilyl)ethynyl)-1^7,1^8-dihydro-4,7-dioxa-2-aza-1(2,8)-pyrido[2,3-d]pyrimidina-3(1,3)-benzenacyclononaphan-1^7-one” yielded a ring closure, isolated yield in series [1] (other bond, 14-membered ring, PPh3/DEAD, 134.0 mM) of 29%.

“3^4-(4-(2-Methoxyethyl)piperazin-1-yl)-1^5-((triisopropylsilyl)ethynyl)-1^7,1^8-dihydro-4-oxa-2-aza-1(2,8)-pyrido[2,3-d]pyrimidina-3(1,3)-benzenacyclooctaphan-1^7-one”: in series [1] (other bond, 13-membered ring, PPh3/DEAD, 83.2 mM), the ring closure, isolated yield amounted to 49%.

Consider `C#Cc1cc(=O)n([C@H]2CC[C@@H](NC(=O)CCCN(C)C)CC2)c2nc(Nc3ccc(N4CCN(C)CC4)cc3)ncc12` [Example 97, 4-(Dimethylamino)-N-[(1s,4s)-4-(5-ethynyl-2-{[4-(4-methylpiperazin-1-yl)phenyl]amino}-7-oxopyrido[2,3-d]pyrimidin-8-yl)cyclohexyl]butanamide], for which the IC50 in series [2] was 1 to 3 µM; in series [3] it was over 3 µM; in series [4], over 10 µM; in series [5], 1 to 3 µM.

In the case of `C#Cc1cc(=O)n(-c2ccccc2)c2nc(Nc3ccc(N4CCN(C)CC4)c(C)c3)ncc12` [Example 12, 5-Ethynyl-2-{[3-methyl-4-(4-methylpiperazin-1-yl)phenyl]amino}-8-phenylpyrido[2,3-d]pyrimidin-7-one], the IC50 in series [2] was under 0.5 µM; in series [3], over 3 µM; in series [4] it was under 1 µM; in series [5], under 0.5 µM.

With `C#Cc1cc(=O)n2c3nc(ncc13)Nc1ccc(N3CCN(C)CC3)c(c1)OCCCC2` [Example 189, 1^5-ethynyl-3^4-(4-methylpiperazin-1-yl)-1^7,1^8-dihydro-4-oxa-2-aza-1(2,8)-pyrido[2,3-d]pyrimidina-3(1,3)-benzenacyclooctaphan-1^7-one], the IC50 is under 0.5 µM in series [2], 0.5 to 1 µM in series [3], under 1 µM in series [4] and under 0.5 µM in series [5].

As to `C#Cc1cc(=O)n(C)c2nc(Nc3ccc(N4CCN(C)CC4)c(NC(=O)NC4CCCC4)c3)ncc12` [Example 219, 3-Cyclopentyl-1-[5-({5-ethynyl-8-methyl-7-oxopyrido[2,3-d]pyrimidin-2-yl}amino)-2-(4-methylpiperazin-1-yl)phenyl]urea], the IC50 was 0.5 to 1 µM in series [2], over 3 µM in series [3], under 1 µM in series [4] and 0.5 to 1 µM in series [5].

As for `C#Cc1cc(=O)n(-c2ccccc2)c2nc(Nc3ccc(N4CCC(N5CC(COC)C5)CC4)cc3)ncc12` [Example 39, 5-Ethynyl-2-[(4-{4-[3-(methoxymethyl)azetidin-1-yl]piperidin-1-yl}phenyl)amino]-8-phenylpyrido[2,3-d]pyrimidin-7-one], the IC50 in series [2] is under 0.5 µM; in series [3], 1 to 3 µM; in series [4] it was under 1 µM; in series [5] it was under 0.5 µM.

On to `C#Cc1cc(=O)n([C@H]2CC[C@@H](NC(=O)CN(C)C)CC2)c2nc(Nc3ccccc3OC)ncc12` [Example 90, 2-(Dimethylamino)-N-[(1s,4s)-4-{5-ethynyl-2-[(2-methoxyphenyl)amino]-7-oxopyrido[2,3-d]pyrimidin-8-yl}cyclohexyl]acetamide], for which the IC50 in series [2] was over 3 µM; in series [3], over 3 µM; in series [4], 1 to 10 µM; in series [5], 1 to 3 µM.

Turning to `C#Cc1cc(=O)n(C)c2nc(Nc3ccc(N4CCN(C)CC4)c(OCCC)c3)ncc12` [Example 207, 5-Ethynyl-8-methyl-2-((4-(4-methylpiperazin-1-yl)-3-propoxyphenyl)amino)pyrido[2,3-d]pyrimidin-7(8H)-one], the IC50 is under 0.5 µM in series [2], 0.5 to 1 µM in series [3], under 1 µM in series [4] and under 0.5 µM in series [5].

For the compound `C#Cc1c(-c2cccc(F)c2Cl)c(=O)n(C)c2nc(Nc3ccc(N(C)CCN(C)C)cc3)ncc12` [Example 135, 6-(2-chloro-3-fluorophenyl)-2-[(4-{[2-(dimethylamino)ethyl](methyl)amino}phenyl)amino]-5-ethynyl-8-methylpyrido[2,3-d]pyrimidin-7-one], the half-inhibitory concentration (IC50) in series [2] was 0.5 to 1 µM; in series [3], 1 to 3 µM; in series [4] it was under 1 µM; in series [5] it was 0.5 to 1 µM.

`C#Cc1c(-c2ccccc2Cl)c(=O)n(C)c2nc(Nc3cccc(CO)c3)ncc12` [Example 132, 6-(2-chlorophenyl)-5-ethynyl-2-{[3-(hydroxymethyl)phenyl]amino}-8-methylpyrido[2,3-]pyrimidin-7-one]: the IC50 in series [2] is 1 to 3 µM; in series [3], 1 to 3 µM; in series [4], under 1 µM; in series [5], 0.5 to 1 µM.

`C#Cc1cc(=O)n2c3nc(ncc13)Nc1ccc(N3CCN(C)CC3)c(c1)OCCCCC2C` (stereo not shown) [Example 228, 1^5-Ethynyl-9-methyl-3^4-(4-methylpiperazin-1-yl)-1^7,1^8-dihydro-4-oxa-2-aza-1(2,8)-pyrido[2,3-d]pyrimidina-3(1,3)-benzenacyclononaphan-17-one]: the IC50 in series [2] was under 0.5 µM; in series [3], over 3 µM; in series [4] it was 1 to 10 µM; in series [5] it was under 0.5 µM.

Turning to `C#Cc1cc(=O)n(C)c2nc(Nc3ccc(N4CCN(C)CC4)c(NC(C)=O)c3)ncc12` [Example 50, N-[5-({5-Ethynyl-8-methyl-7-oxopyrido[2,3-d]pyrimidin-2-yl}amino)-2-(4-methylpiperazin-1-yl)phenyl]acetamide], the IC50 was 0.5 to 1 µM in series [2], over 3 µM in series [3], under 1 µM in series [4] and under 0.5 µM in series [5].

For `C#Cc1cc(=O)n2c3nc(ncc13)Nc1ccc(N3CCN(C(C)C)CC3)c(c1)NC(=O)CCC2` [Example 235, 1^5-Ethynyl-3^4-(4-isopropylpiperazin-1-yl)-1^7,1^8-dihydro-2,4-diaza-1(2,8)-pyrido[2,3-d]pyrimidina-3(1,3)-benzenacyclooctaphane-1^7,5-dione], the IC50 is under 0.5 µM in series [2], 0.5 to 1 µM in series [3], under 1 µM in series [4] and under 0.5 µM in series [5].

For the compound `C#Cc1c(C)c(=O)n2c3nc(ncc13)Nc1ccc(N3CCN(C)CC3)c(c1)OCCCCC2` [Example 229, 1^5-Ethynyl-1^6-Methyl-3^4-(4-methylpiperazin-1-yl)-1^7,1^8-dihydro-4-oxa-2-aza-1(2,8)-pyrido[2,3-d]pyrimidina-3(1,3)-benzenacyclononaphan-1^7-one], the IC50 in series [2] was under 0.5 µM; in series [3] it was under 0.5 µM; in series [4] it was under 1 µM; in series [5], under 0.5 µM.

As usually defined, the IC50 is the concentration that inhibits the measured activity by half.
